From patent US20240124456A1, “AZA-ERGOLINE DERIVATIVE AND PREPARATION METHOD THEREFOR AND APPLICATION THEREOF” (SHANGHAITECH UNIVERSITY, priority 2021, published 2024)

Legend:
dopamine D2 receptors [1] = target: T1, dopamine D2 receptors (Homo sapiens (Human), UniProt P14416); assay: Radioligand competition binding, affinity for dopamine D2 receptors ([3H]-Methylspiperone); conditions: [3H]-Methylspiperone (0.3-0.5 nM), HEK-293T membranes; for Ki: I-1 to 19 n=3, I-20 to 27 single determination; for Affinity pKi ± SEM: n=3
Description: A 10 cm diameter dish was used for transfection with 10 ng of the dopamine D2 receptors and 40 μL of PEI. After 48 hours, the 10 cm dish was taken out from the cell culture room and the cultured cells had expressed the dopamine D2 receptors. A vacuum pump was used to suck off the culture medium, 3 mL of lysis buffer (50 mM Tris hydrochloric acid buffer, pH 7.4) was added to each well, and the cells were placed in a 4° C. freezer for 10 minutes. After the cells were detached, the cells were transferred to a 15 mL centrifuge tube and centrifuged at 1500 rpm for 5 minutes at 4° C., and the supernatant was discarded. The cell pellet was transferred to a tissue homogenizer, and 3 mL of lysis buffer was added and fully ground until the cells were broken. Then, cell suspension was equally divided into several EP tubes, centrifuged at 4° C. and 12000 rpm for 5 min, and the supernatant was discarded. The precipitate was the cell membrane component containing the dopamine D2 receptors and stored at −80° C.
First, a standard binding buffer (50 mM HEPES, 50 mM NaCl, 5 mM MgCl2, 0.5 mM EDTA, pH 7.4) was added to the cell membrane component containing the dopamine D2 receptors, and the cell membrane was disrupted and resuspended with an electric tissue homogenizer. 30 μL of membrane protein suspension was added to each well of a 96-well plate. Then, 30 μL of different drugs were added to the 96-well plate from left to right to ensure that the final drug concentrations were 10^−5 M, 10^−6 M, 10^−7 M, 10^−8 M, 10^−9 M and 0 M, with two replicates per treatment. Next, 30 μL [^3H]-N-Methylspiperone was added to each well of the 96-well plate, and the plate was incubated for 2 hours at room temperature in the dark. The unbound isotopes were removed by Whatman GF/C filter membrane and vacuum pump, and the isotopes bound to the receptors were detected by MicroBeta isotope liquid scintillation counter.
The affinity of the compounds of the present invention for the dopamine D2 receptors was determined by the method of radioligand competition experiment. In the first step, a cell membrane component containing specific dopamine D2 receptors was prepared. A10 cm dish was used for transfection with 10 ng of the dopamine D2 receptors and 40 μL of PEI. After 48 hours, the 10 cm dish was taken out from the cell culture room and the cultured cells had expressed the dopamine D2 receptors. A vacuum pump was used to suck off the culture medium, 3 mL of lysis buffer was added to each well, and the cells were placed in a 4° C. freezer for 10 minutes. After the cells were detached, the cells were transferred to a 15 mL centrifuge tube and centrifuged at 1500 rpm for 5 minutes at 4° C., and the supernatant was discarded. The cell pellet was transferred to a tissue homogenizer, and 3 mL of lysis buffer was added and fully ground until the cells were broken. Then, cell suspension was equally divided into several EP tubes, centrifuged at 4° C. and 12000 rpm for 5 min, and the supernatant was discarded. The precipitate was the cell membrane component containing the dopamine D2 receptors. […] First, a standard binding buffer was added to the cell membrane component containing the dopamine D2 receptors, and the cell membrane was disrupted and resuspended with an electric tissue homogenizer. 30 μL of membrane protein suspension was added to each well of a 96-well plate. Then, 30 μL of different drugs were added to the 96-well plate from left to right to ensure that the final drug concentrations were 10^−5 M, 10^−6 M, 10^−7 M, 10^−8 M, 10^−9 M and 0 M, with two replicates per treatment. Next, 30 μL [^3H]-Methylspiperone was added to each well of the 96-well plate. The plate was incubated for 2 hours at room temperature in the dark. Detection. The machine reading value reflected the amount of [^3H]-Methylspiperone bound on the membrane, and after further data processing, the affinity Ki value of different compounds for dopamine D2 receptors was obtained.

dopamine D2 receptors [2] = target: T1, dopamine D2 receptors; assay: G protein Gαi1-γ9 dissociation BRET, dopamine D2 receptor functional activity; assay type: cell-based; conditions: for Emax / Gai1 BRET Emax % ± SEM: relative to the endogenous ligand dopamine; for Emax: read-out: Gai1 BRET Emax % ± SEM
Description: To examine downstream G protein signaling mediated by dopamine D2 receptors, 6 cm dish was used for transfection with 1μg of dopamine D2 receptors, 1μg of Gαi1 fused to seaweed luciferase (Gαi1-Rluc), 1 μg of Gβ3, 1 μg of Gγ9 fused to green fluorescent protein (Gγ9-GFP) and 16 μL of transfection reagent PEI. […] On the third day, the drugs were added for test.
(§1) To examine downstream G-protein signaling pathway mediated by dopamine D2 receptors, on the first day, 6 cm dish was used for transfection with 1μg of dopamine D2 receptors, 1μg of Gαi1 containing C-terminal seaweed luciferase (GGαi1-Rluc), 1 μg of […], 1 μg of Gγ9 containing C-terminal green fluorescent protein (Gγ9-GFP) and 16 μL of PEI. At the same time, in order to examine the downstream f3-arrestin2 signaling pathway mediated by dopamine D2 receptors, on the first day, 6 cm dish was used for transfection with 500 μg of dopamine D2 receptors containing C-terminal seaweed luciferase (D2-Rluc), 500 μg of G protein-coupled receptor kinase 2 (GRK2), 2500 μg of […] containing N-terminal green fluorescent protein (GFP2-ARRB2) and 14 μL of PEI. The next day, the overgrown cells were digested and plated a 96-well plate at the amount of cells contained in a 6 cm culture dish with overgrown cells, and 100 μL of culture medium was added to each well. On the third day, the drugs were added for test. The 96-well plate was taken out from the cell culture room to remove the culture medium, 40 μL of the substrate coelenterazine 400a (final concentration of 5 μM) was added to each well, and then 20 μL of different drugs were added in turn from left to right to ensure that the final concentration of the drugs decreased gradually from bottom to top, and each treatment was repeated twice. Finally, the prepared samples were loaded on machine for test. The machine reading value reflected the intracellular β-arrestin2 on the membrane and the dissociation of G protein trimer. The former indicated the degree of activation of the β-arrestin2 signaling pathway downstream of the dopamine D2 receptors, and the latter indicated the degree of activation of the G protein signaling pathway downstream of the dopamine D2 receptors.

dopamine D2 receptors [3] = target: T1, dopamine D2 receptors; assay: β-arrestin2 recruitment BRET, dopamine D2 receptor functional activity; assay type: cell-based; conditions: for Emax / β-arrestin2 BRET Emax % ± SEM: relative to the endogenous ligand dopamine; for Emax: read-out: β-arrestin2 BRET Emax % ± SEM
Description: To examine the downstream f3-arrestin2 signaling pathway mediated by dopamine D2 receptors, 6 cm dish was used for transfection with 500 […] of dopamine D2 receptors fused to seaweed luciferase (D2-Rluc), 500 μg of G protein-coupled receptor kinase 2 (GRK2), 2500 μg of β-arrestin2 fused to green fluorescent protein (GFP2-ARRB2) and 14 μL of transfection reagent PEI. The next day, the overgrown cells were digested and plated a 96-well plate at the amount of cells contained in a 6 cm culture dish with overgrown cells, and 100 μL of culture medium was added to each well. On the third day, the drugs were added for test.
as §1

[4] = HEK-293T, I-1 to 19 n=3, I-20 to 27 single determination, read-out: Gai1 BRET EC50
[5] = HEK-293T, I-1 to 19 n=3, I-20 to 27 single determination, read-out: β-arrestin2 BRET EC50

T1 sequence (P14416 whole entry): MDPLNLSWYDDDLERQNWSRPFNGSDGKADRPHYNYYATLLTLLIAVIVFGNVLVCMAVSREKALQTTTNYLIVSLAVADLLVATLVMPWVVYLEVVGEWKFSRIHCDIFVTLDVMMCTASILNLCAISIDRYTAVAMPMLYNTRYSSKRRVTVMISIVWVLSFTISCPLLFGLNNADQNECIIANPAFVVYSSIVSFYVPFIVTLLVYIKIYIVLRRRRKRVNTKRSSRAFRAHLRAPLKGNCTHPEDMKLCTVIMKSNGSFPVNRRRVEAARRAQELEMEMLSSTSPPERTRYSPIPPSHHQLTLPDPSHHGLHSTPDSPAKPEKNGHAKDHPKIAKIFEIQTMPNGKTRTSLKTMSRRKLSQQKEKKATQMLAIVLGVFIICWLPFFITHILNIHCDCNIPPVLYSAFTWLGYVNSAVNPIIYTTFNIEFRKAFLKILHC

Row | Structure (SMILES) | Ki (dopamine D2 receptors [1]) [nM] | Affinity pKi ± SEM (dopamine D2 receptors [1]) | EC50 (dopamine D2 receptors [2]; [4]) [nM] | Emax (dopamine D2 receptors [2]) [%] | EC50 (dopamine D2 receptors [3]; [5]) [nM] | Emax (dopamine D2 receptors [3]) [%] | EC50 (dopamine D2 receptors [2]; n=3, read-out: Gai1 BRET pEC50 ± SEM (converted)) [nM] | Gai1 BRET Emax % ± SEM (dopamine D2 receptors [2]) [%] | EC50 (dopamine D2 receptors [3]; n=3, read-out: β-arrestin2 BRET pEC50 ± SEM (converted)) [nM] | β-arrestin2 BRET Emax % ± SEM (dopamine D2 receptors [3]) [%] | Gai1 BRET pEC50 ± SEM (dopamine D2 receptors [2]; n=3) | β-arrestin2 BRET pEC50 ± SEM (dopamine D2 receptors [3]; n=3)
1 | O=C(N[C@H]1CC[C@H](CCN2CCN3c4cccc5[nH]cc(c45)CC3C2)CC1)c1ccccc1 (stereo partly drawn) [Compound I-14, N-(4-(2-(4,6,6a,7,9,10-hexahydro-8H-pyrazino[1,2-a]pyrrolo[4,3,2-de]quinolin-8-yl)ethyl)trans-cyclohexyl)benzamide] | 40.7 | (7.39 ± 0.05) | 1.67 | 72 | 27.7 | 41 | – | – | – | – | – | –
2 | O=c1ccc2ccc(OCCCCN3CCN4c5cccc6[nH]cc(c56)CC4C3)cc2[nH]1 (single isomer, unassigned; (-)) [(−)-I-2] | 1.75 | – | 3 | – | – | – | 2.75 | 91 ± 3 | 18.2 | 76 ± 2 | – | –
3 | O=c1ccc2ccc(OCCCN3CCN4c5cccc6[nH]cc(c56)CC4C3)cc2[nH]1 (stereo not drawn) [Compound I-8, 7-(3-(4,6,6a,7,9,10-hexahydro-8H-pyrazino[1,2-a]pyrrolo[4,3,2-de]quinolin-8-yl)propoxy)quinolin-2(1H)-one] | 0.49 | (9.31 ± 0.15) | 38.9 | 94 | 110 | 98 | – | – | – | – | – | –
4 | Cn1cc2c3c(cccc31)N1CCN(C/C=C/COc3ccc4c(c3)NC(=O)CC4)CC1C2 (stereo not drawn) [Compound I-22, (E)-7-((4-(4-methyl-4,6,6a,7,9,10-hexahydro-8H-pyrazino[1,2-a]pyrrolo[4,3,2-de]quinolin-8-yl)-2-buten-1-yl)oxy)-3,4-dihydroquinolin-2(1H)-one] | 176 | – | 38 | 41 | 91.6 | 32 | – | – | – | – | – | –
5 | O=C(N[C@H]1CC[C@H](CCN2CCN3c4cccc5[nH]cc(c45)CC3C2)CC1)c1cc2ccccc2[nH]1 (stereo partly drawn) [Compound I-13] | 16.3 | (7.79 ± 0.07) | 6.74 | – | 146 | – | – | 92 ± 3 | – | 48 ± 8 | 8.17 ± 0.08 | 6.84 ± 0.12
6 | c1cc2c3c(c[nH]c3c1)CC1CN(CCCCOc3ccc4scnc4c3)CCN21 (stereo not drawn) [Compound I-3] | – | – | 43.6 | 92 | 64.6 | 93 | – | – | – | – | – | –
7 | O=C(N[C@H]1CC[C@H](CCN2CCN3c4cccc5[nH]cc(c45)CC3C2)CC1)N1CCCC1 (stereo partly drawn) [Compound I-11, N-(4-(2-(4,6,6a,7,9,10-hexahydro-8H-pyrazino[1,2-a]pyrrolo[4,3,2-de]quinolin-8-yl)ethyl)trans-cyclohexyl)tetrahydropyrrole-l-carboxamide] | – | – | 9.33 | 91 | 11.2 | 87 | – | – | – | – | – | –
